Measurements as given in patent US11707467B2, “(17-ß)-3-oxoandrost-4-en-17YL tridecanoate compositions and methods of their preparation and use” (Lipocine Inc., priority 2014, dated 2023).

Tests used:
[1] = Pharmacokinetic study: % responders by serum testosterone Cavg and Cmax; format: in vivo, human
Procedure: Some of the dosage forms of compositions described herein comprising or prepared from substantially pure (17-β)-3-Oxoandrost-4-en-17-yl tridecanoate were administered to human subjects as a single dose of the esters to subjects. Serial blood samples were drawn at predetermined time (e.g., t=0, 12, 24, etc.) and analyzed for testosterone concentration using a validated HPLC-MS/MS analytical method. The Cmax, Cavg t1-t2, Tmax and AUCt1-t2 are calculated for testosterone in the serum of the subjects. Pharmacokinetic and statistical analyses are performed on the data obtained from the subjects. The pharmacokinetic parameters are defined as follows: • AUCt1-t2: The area under the serum concentration versus time curve, from time t1 (in hours) to time t2 (in hours) measurable concentration of the administered drug, as calculated by the linear trapezoidal method. […] This represents the average serum testosterone level over a period starting from time 0 (zero) hours to […] post-administration of dose. It should also be noted that Cavg t0-t24 is also referred to as simply “Cavg” in this invention. • Cavg t0-t12: The average serum concentration of testosterone obtained by dividing the […] value by 12. This represents the average serum testosterone level over a period starting from time 0 (zero) hours to […] post-administration of dose. • Cavg t12-t24: The average serum concentration of testosterone obtained by dividing the AUCt12-t24 value by 12. This represents the average serum testosterone level over the second half of the 24-hours post-administration of dose period; i.e., from a period starting from time 12 hours to time 24 hours post-administration of dose.

[2] = system: male and female mice; conditions: cited from earlier work
[3] = system: developing oocytes in female mice; conditions: cited from earlier work
[4] = starting 100 (±50) mg T equivalent QD or BID, same formulation
[5] = starting 300 (±50) mg T equivalent QD, 12-20% API, 55-70% lipophilic additive, 12-20% hydrophilic additive
[6] = starting 350 (±100) mg T equivalent BID, same formulation
[7] = starting 1000 (±200) mg T equivalent QD or BID, same formulation

| Structure (SMILES) | % Responders with Cave t0-t24 (ng/dL) 300-1140 [1, 4] | % Responders with Cmax (ng/dL) 1800-2500 [1, 4] | % Responders with Cmax (ng/dL) >2500 [1, 4] | % Responders with Cmax (ng/dL) ≤1500 [1, 4] | % Responders with Cave t0-t24 (ng/dL) 300-1140 [1, 5] | % Responders with Cmax (ng/dL) 1800-2500 [1, 5] | % Responders with Cmax (ng/dL) >2500 [1, 5] | % Responders with Cmax (ng/dL) ≤1500 [1, 5] | % Responders with Cave t0-t24 (ng/dL) 300-1140 [1, 6] | % Responders with Cmax (ng/dL) 1800-2500 [1, 6] | % Responders with Cmax (ng/dL) >2500 [1, 6] | % Responders with Cmax (ng/dL) ≤1500 [1, 6] | % Responders with Cave t0-t24 (ng/dL) 300-1140 [1, 7] | % Responders with Cmax (ng/dL) 1800-2500 [1, 7] | % Responders with Cmax (ng/dL) >2500 [1, 7] | % Responders with Cmax (ng/dL) ≤1500 [1, 7] | Carcinogenicity [2] | Effect on developing oocytes [3] |
| --- | --- | --- | --- | --- | --- | --- | --- | --- | --- | --- | --- | --- | --- | --- | --- | --- | --- | --- |
| CCCCCCCCCCCCC(=O)O[C@H]1CC[C@H]2[C@@H]3CCC4=CC(=O)CC[C@]4(C)[C@H]3CC[C@]12C [(17-β)-3-Oxoandrost-4-en-17-yl tridecanoate] | 50-65% | 0-5% | 0-1% | 100% | 100% | 0-5% | 0-1% | 100% | 100% | 0-5% | 0-1% | 100% | 100% | 20-30% | 60-80% | 0% |  |  |
| C[C@]12CCC(=O)C=C1CC[C@@H]1[C@@H]2CC[C@]2(C)C(=O)CC[C@@H]12 [androstenedione] |  |  |  |  |  |  |  |  |  |  |  |  |  |  |  |  | carcinogenic | induces abnormalities in morphology and function of developing oocytes |
